# PMC12040169 (PLOS Biology, 2025)
# Experiment: in vitro
# Conditions: human, hela cells, % viability
row,Structure (SMILES),"viability at 28.5 h, 10 µM [%]"
1,N#Cc1ccc(CN2C[C@@H]3OCC(=O)N[C@@H]3C2)cc1 [CBK289261],103
2,CN1CCC(N2CCN(C(=O)NCC(c3ccccc3)c3ccccc3)CC2)CC1 [CBK156096],92.5
3,CN1CCC(CN(C)Cc2ccc3cccc(Cl)c3n2)C1 (centres unmarked) [CBK282615],90.2
4,O=C(c1cccnc1)N1CCN(Cc2cccc(Oc3ccccc3)c2)CC1 [CBK263326G],101
5,COc1nccnc1N1CCN(CC(N)=O)CC1 [CBK084219],98.4
6,Cc1nc(CN2CCCC(NCc3cccc4ccccc34)C2)no1 (centres unmarked) [CBK304068],71.4
7,N#Cc1ccc(-c2nc3cc(Cl)c(F)cc3[nH]2)cc1 [CBK096290],90.6
8,CS(=O)(=O)N(CCc1ccccc1)CC(=O)O [CBK281244],109
9,OC(COc1ccc(-c2ccccc2)cc1)CN1CCN(Cc2ccccc2)CC1 (centres unmarked) [CBK074855C],94.6
10,CC(C)SCC(=O)Nc1ccc(Br)cc1 [CBK057618],102
11,CCCn1c(C)cc(-c2csc(NC(=O)CCn3c(-c4cccs4)n[nH]c3=S)n2)c1C [CBK295326],90.8
12,O=C1C[C@H]2[C@H](CC3(SCCS3)[C@@H]2CO)O1 [CBK006615],90.2
13,Cc1ccc(CNC(Cc2c[nH]c3ccccc23)C(=O)O)cc1 (centres unmarked) [CBK287145],106
14,C=CCOc1ccc2ccccc2c1CNc1nn[nH]n1 [CBK267619],92.8
15,Cc1cc(CN2CCN(C(=O)NCCc3ccccn3)CC2)on1 [CBK305637],80
16,CC(=O)Nc1ccccc1NC(=O)CCCN1C(=O)CCC1=O [CBK267681],92.8
17,Fc1ccc(OCCNCCC2NCCc3c2[nH]c2ccccc32)cc1 (centres unmarked) [CBK066970],97.6
18,C/C(=N\NC(N)=S)C(=O)O [CBK261575],102
19,CCn1c(=O)n(CC(=O)NCc2cccs2)c2cccnc21 [CBK283811],88.3
20,COc1ccc([C@]23CC[C@H](NC(=O)c4ccc(C(F)(F)F)c(F)c4)C[C@H]2CN(C)C3)cc1OC [CBK082743T],110
21,CCOC(=O)c1cc2c3ccccc3n(CC)c2nc1N [CBK100822],94
22,O=C(CN1CCCCC1)Nc1c(-c2ccccc2)c2cc(Br)ccc2[nH]c1=O [CBK263351],94.7

row,Structure (SMILES),"viability at 28.5 h, 10 µM [%]"
1,O=C(Nc1cccnc1)C1CCN(C(=O)OCc2ccccc2)CC1 [CBK083187],90.6
2,CCN1CCC2(CCC1=O)CN(Cc1cncn1CC(C)C)CCN2C (centres unmarked) [CBK306947],96
3,O=C(CN1CCCC1)Nc1sc2c(c1C(=O)Nc1ccccc1)CCCC2 [CBK268800],103
4,CCc1nnc(NS(=O)(=O)c2ccc(NC(=O)c3ccc([N+](=O)[O-])cc3)cc2)s1 [CBK045483],95.4
5,COc1ccc(N2C(N)=C(C#N)C(c3cccc(OC(C)C)c3)C3=C2CCS3(=O)=O)cc1 (centres unmarked) [CBK293992],85.6
6,CN1CCN(NC(=O)COc2cccc(C(F)(F)F)c2)CC1 [CBK268124],90.2
7,Cc1ccc(OCCSc2nnc3[nH]c4ccccc4n23)cc1 [CBK267922],96.2
8,CC(C)(C)n1cc2c(n1)[C@H]1CN(C(=O)CN3CCCC3=O)C[C@H]1CC2 [CBK283401],89.2
9,Oc1cccc(-c2cncc(NCCCN3CCOCC3)n2)c1 [CBK037858],89.1
10,Cc1ccc(NC(=O)COc2ccc(/C=C\c3onc(C)c3[N+](=O)[O-])cc2)cc1 [CBK268928],88.2
11,NC(=O)c1ccc(-c2nccnc2NCc2ccc3c(c2)OCO3)cc1 [CBK036696],91.3
12,CCn1nccc1N1CCCC(NC(=O)CCc2ccccc2Cl)C1=O (centres unmarked) [CBK305455],113
13,Cc1ncccc1COC(=O)N1CCC(C(F)(F)F)CC1 [CBK200154],102
14,CCCCc1c(C)nc2ccc(OC)cc2c1SCCC(=O)O [CBK263888],98.1
15,CCOc1ccc(N(Cc2ccc(C(=O)O)cc2)S(C)(=O)=O)cc1 [CBK287231],104
16,Cc1ccc2nsnc2c1NC(=O)COc1ccccc1[N+](=O)[O-] [CBK263779],92.7
17,CC(=O)Cc1ccccc1OCC(=O)O [CBK261031],90.9
18,Cn1nc(NC(=O)Cc2ccsc2)c2c(N3CCOCC3)cccc21 [CBK307023],109
19,COc1cccc(CN2CCC3(CC2)c2[nH]c4ccc(OCc5ccccc5)cc4c2CCN3C=O)c1 [CBK040462],101
20,O=C(O)c1ccc(-c2cnc3ccccc3n2)cc1 [CBK288010],106
21,O=C(N/N=C\C=C\c1ccco1)c1ccc([N+](=O)[O-])cc1 [CBK261961],102
22,Cc1nc(-c2ccco2)nc2sc(C(=O)N(C)CC3COc4ccccc4O3)c(C)c12 (centres unmarked) [CBK295347],105

row,Structure (SMILES),"viability at 28.5 h, 10 µM [%]"
1,COc1ccc2[nH]cc(CCNC(=O)CC(C)O)c2c1 (centres unmarked) [CBK116201],106
2,CCN1CCN(C(=O)c2cccc(N(C)C)c2)C(Cc2ccc(-c3ccncc3)cc2)C1=O (centres unmarked) [CBK285813],101
3,COCCC(=O)N1C[C@@H](c2ccccc2F)[C@@]2(CCCC(=O)N2)C1 [CBK283360],90.4
4,O=C(C1CCCO1)N1CCCC(c2cc3cccnc3[nH]2)C1 (centres unmarked) [CBK284978],101
5,COc1cccc(NC(=O)C2C(C(=O)O)C3C=CC2C32CC2)c1 (centres unmarked) [CBK287106],81.6
6,Nc1ncc(-c2cccc(F)c2)nc1NCC1CCOCC1 [CBK063860],98.7
7,Cc1cc(C)c2c(c1)cc(C)c1nn(CC(=O)N(C)C)c(=O)n12 [CBK283927],96.9
8,CC(C)(C)c1cnc(C(=O)NC2CCCN(c3ncccn3)C2)o1 (centres unmarked) [CBK305777],92.3
9,Brc1cccc(NN=C2CCCC2)n1 [CBK006748],85.3
10,CN(C)CCN(C)c1cc(-c2cccc(Br)c2)nc2ccnn12 [CBK037140],106
11,C#CCNC(=O)C1CCN(c2nc3ccccc3n2C)CC1 [CBK283956],89.7
12,CC(=O)NCCc1nc2cc(NC(=O)Nc3ccccc3)ccc2n1C [CBK268216],103
13,COc1ccccc1OCCOc1c(Cl)cc(/C=C2\SC(=S)NC2=O)cc1Cl [CBK264848],93.9
14,CCn1cncc1C(=O)NCC1(c2ccccc2F)CCOCC1 [CBK281555],90.9
15,NC(=O)c1ccc(NC(=O)c2cncc(-c3ccc(C(=O)N4CCOCC4)cc3)c2)cc1 [CBK160214],106
16,COc1cccc(NC(=O)c2cncc(-c3ccc(C(=O)N4CCOCC4)cc3)c2)c1 [CBK160213],96.2
17,Cc1nc(C2CCN(C(=O)CC3CCCC3)CC2)ncc1C(=O)Nc1ccc(Cl)cc1 [CBK285847],97.8
18,COC(=O)C1C(=O)c2cc3c(cc2C1c1cc(OC)c(OC)c(OC)c1)OCO3 (centres unmarked) [CBK200099],92.5
19,CCOC(=O)c1cccnc1-c1ccc(Cl)c(Cl)c1 [CBK149241],92.1
20,NC(=O)C(=O)Nc1nc(-c2ccccc2)cs1 [CBK263005],98.4
21,CCCCC(=O)NCCc1ccc(S(N)(=O)=O)cc1 [CBK288360],91.5
22,CC(NC(=O)C1CC(=O)N(c2cccc(F)c2)C1)C1CC2CCC1C2 (centres unmarked) [CBK281664],99.9

row,Structure (SMILES),"viability at 28.5 h, 10 µM [%]"
1,O=C(Cn1cc(C(=O)NCc2ccc(F)cc2)ccc1=O)NC1(c2ccccc2)CCCC1 [CBK286081],96.9
2,Cc1cccc(C)c1N1C(=O)c2ccccc2NC12C(=O)Nc1ccc([N+](=O)[O-])cc12 (centres unmarked) [CBK103749],80.6
3,CCN1CCN(Cc2c(O)ccc3c(=O)c(-c4ccccc4OC)c(C(F)(F)F)oc23)CC1 [CBK263692],87.6
4,CC(CCc1ccc(O)cc1)NC1CCCC1 (centres unmarked) [CBK033987],102
5,COCCOC(=O)N1CCC(C(=O)NC(c2ccc(Cl)cc2)c2cccs2)CC1 (centres unmarked) [CBK059702],104
6,COc1ccccc1NC(=O)NC(=O)C1CCN(C)CC1 [CBK034830],96.6
7,COC[C@@H]1CCCN1S(=O)(=O)c1ccc(OC(F)(F)F)cc1 [CBK044338],92.4
8,Cc1nc(S(=O)(=O)CC2CCCO2)n(CC(C)C)c1C (centres unmarked) [CBK304882],116
9,O=C1CCCN1C(=O)CN1CCOCC1 [CBK261467],117
10,CCC1(C)CC(=O)c2cc(NC(=O)N(CCO)CCO)ccc2O1 (centres unmarked) [CBK307003],116
11,CCOC(=O)CC(=O)CSc1nc(C)cc(-c2cccnc2)c1C#N [CBK267460],94
12,Cc1nc2n(n1)C1=CC(C)(C)CC(=O)C1=NN2 [CBK019050],89.2
13,c1ccc(OCc2nc3c4c(-c5ccccc5)c(-c5ccccc5)oc4ncn3n2)cc1 [CBK262939],94.6
14,O=C(Nc1ccc(F)cc1)c1[nH]c2ccccc2c1NS(=O)(=O)c1cc(Cl)sc1Cl [CBK050094],95
15,FC(F)(F)c1nc2ccccc2nc1Sc1nc[nH]n1 [CBK093808],87.6
16,CCOC(=O)c1ccccc1OC(=O)c1ccc2c(c1)C1C=CCC1C(C(=O)O)N2 (centres unmarked) [CBK265155],101
17,Cc1ccc(NC(=O)N(Cc2ccc(-c3ccccc3)cc2)CC(C)(C)CN)cc1[N+](=O)[O-] [CBK002439C],83.7
18,O=C(CC1CCCC1)N1CCC(c2nnc3n2CCCCC3)CC1 [CBK284630],84.6
19,CC(=O)Nc1nonc1OCCOc1nonc1NC(C)=O [CBK020227],113
20,Cc1ccc(NCc2nc3ccccc3n2Cc2ccccc2)cc1C [CBK263756],98.4
21,O=C(NCc1ccc(F)cc1)N(Cc1cccc(Cl)c1)CC1CCNCC1 [CBK119479],117

# Same assay, conditions: human, hela cells, % viability, bulk resorufin, single well
row,Structure (SMILES),"viability at 28.5 h, 10 µM [%]"
1,O=C1NC(=O)N(Cc2ccccc2)C(=O)/C1=C\NC(CO)(CO)CO [CBK264431],104
2,COc1ccc(C(C)NC(=O)c2cccc(-c3ccc4c(c3)COC3(CCN(C(=O)OC(C)(C)C)CC3)O4)c2)cc1 (centres unmarked) [CBK107833],100
